{"source": "patent US7638509B2", "about": "“Diene compounds and formulations” (priority 2003, dated 2009)", "biological_target": "T1, wild-type AR (Homo sapiens, UniProt P10275)", "T1 sequence (P10275 1-920)": "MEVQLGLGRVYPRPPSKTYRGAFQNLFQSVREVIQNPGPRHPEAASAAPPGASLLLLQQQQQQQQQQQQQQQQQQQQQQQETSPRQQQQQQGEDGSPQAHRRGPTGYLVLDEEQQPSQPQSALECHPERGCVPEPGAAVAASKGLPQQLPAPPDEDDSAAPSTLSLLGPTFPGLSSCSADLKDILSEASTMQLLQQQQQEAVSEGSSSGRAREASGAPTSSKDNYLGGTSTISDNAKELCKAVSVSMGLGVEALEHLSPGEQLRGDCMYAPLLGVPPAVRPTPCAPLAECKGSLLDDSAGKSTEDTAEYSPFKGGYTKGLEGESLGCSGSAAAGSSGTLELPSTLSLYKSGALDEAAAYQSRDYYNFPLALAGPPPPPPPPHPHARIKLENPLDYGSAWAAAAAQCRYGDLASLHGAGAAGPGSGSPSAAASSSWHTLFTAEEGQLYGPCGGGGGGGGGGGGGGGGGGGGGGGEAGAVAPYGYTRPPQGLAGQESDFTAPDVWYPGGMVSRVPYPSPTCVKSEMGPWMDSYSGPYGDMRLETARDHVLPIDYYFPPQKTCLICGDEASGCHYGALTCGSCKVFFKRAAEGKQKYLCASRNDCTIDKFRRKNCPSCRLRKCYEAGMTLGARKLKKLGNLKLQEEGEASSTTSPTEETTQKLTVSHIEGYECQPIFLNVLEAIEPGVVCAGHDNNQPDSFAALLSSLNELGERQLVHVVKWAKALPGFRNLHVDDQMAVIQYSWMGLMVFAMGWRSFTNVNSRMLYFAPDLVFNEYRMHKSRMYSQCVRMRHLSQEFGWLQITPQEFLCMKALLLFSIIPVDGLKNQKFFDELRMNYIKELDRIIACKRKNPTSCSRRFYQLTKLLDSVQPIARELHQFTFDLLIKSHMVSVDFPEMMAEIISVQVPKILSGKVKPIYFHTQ", "assay": "AR transcriptional activity (androgenic activity), MMTV-Luc reporter in PC-3 cells transfected with wild-type AR", "format": "cell-based", "design": "expressed in transfected cells; host or cells: PC-3", "settings": "PC-3, wild-type AR plasmid + MMTV-Luc, compound at 1000 nM, 24 h", "description": "Cell Culture, Transfection, and Reporter Gene Assay. The human prostate cancer cell lines, LNCaP, PC-3, and DU145, and non-prostate cancer cell line COS-1 were maintained in RPMI or Dulbecco's modified Eagle's medium (DMEM) (Life Technologies) supplemented with 10% fetal bovine serum (FBS). Transfections and luciferase (Luc) assays were performed as previously described (Miyamoto, H., Yeh, S., Wilding, G. & Chang, C. (1998) Proc. Natl. Acad. Sci. USA 95, 7379-7384; Miyamoto, H., Rahman, M., Takatera, H., Kang, H.-Y., Yeh, S., Chang, H.-C., Nishimura, K., Fujimoto, N. & Chang, C. (2002) J. Biol. Chem. 277, 4609-4617). Briefly, cells seeded to reach a density of 50-60% confluence in 12 well tissue culture plates were transfected with 1.5 μg of DNA according to “SuperFect transfection” instructions (Qiagen). After 2-3 h incubation, cells were treated with medium supplemented with charcoal-stripped FBS containing either ethanol or ligands for 24 h. The cells were then harvested and whole cell extracts were used for Luc assay. The Luc activity was determined using a Dual-Luciferase Reporter Assay System (Promega) and luminometer.\nAnti-DHT Effect of DHEA Derivatives with Low Androgenic Activity on AR Transcription. Test compounds as antiandrogenic compounds, were characterized by analysis of their ability to induce AR transcriptional activity in the AR-negative PC-3 cell line. The Luc activity was determined in the cell extracts with transient transfection of wild-type AR plasmid and androgen response element-reporter plasmid (mouse mammary tumor virus (MMTV)-Luc). After transfection, the cells were treated with various compounds at 0.1-1,000 nM.\nTo accomplish these studies, PC-3 cells were transfected with the wild-type AR expression plasmid pSG5-AR and MMTV-Luc. […] The Luc activity was measured relative to that of ethanol treatment (set as 1-fold). Values from the mean±SD of at least three determinations were used. PC-3 cells were transfected with the pSG5-AR and MMTV-Luc. […] Values from the mean±SD of at least three determinations were obtained.", "data": [{"smiles": "CC(=O)O[C@H]1C=C[C@@]2(C)C(=CC[C@@H]3[C@@H]2CC[C@@]2(C)[C@H]3CCC23OCCO3)C1", "note": "[ADEK, 3β-acetoxy-17,17-ethylenedioxyandrosta-1,5-diene]", "values": [{"measurement": "induction on AR transcription as compared to mock treatment", "result": "marginal induction"}]}]}
